Source: PMC7898037, “Improving mitochondria and ER stability helps eliminate upper motor neuron degeneration that occurs due to mSOD1 toxicity and TDP‐43 pathology” (Clinical and Translational Medicine, 2021)

Test: Weight of the mice
Format: in vivo
Design: Mean Diff. of weight, vehicle vs. NU-9: unit not given here
Details: for Mean weight (Mean 2): WT-UeGFP mice, in g (unit assumed); for Weight, Average: WT-UeGFP
Method: hSOD1^G93A‐UeGFP, prpTDP‐43^A315T‐UeGFP and WT‐UeGFP mice were weighed and the required NU‐9 dose per weight was calculated (20 or 100 mg/kg), which was administered once daily by oral gavage, starting at postnatal day (P)60 and continuing until P120. Animals from the untreated group received the vehicle (NMP and olive oil) only. For oral administration purposes, 20 ga × 38 mm plastic feeding tubes were used (Instech Laboratories, Inc). The gavage tip was inserted into the mouth directly over the tongue and into the pharynx. While observing the swallowing reflex, the tip was safely and smoothly slid into the esophagus. Once the administration was completed, the gavage tip was pulled straight out.
Behavior data were collected from hSOD1^G93A‐UeGFP and WT‐UeGFP mice (starting at P60 and every 7 days until P116) and from prpTDP‐43^A315T‐UeGFP mice (at P60, P90, and P120) with the following number of mice for each group: WT‐UeGFP vehicle (n = 10), hSOD1^G93A‐UeGFP vehicle (n = 6), WT‐UeGFP 20 mg/kg/day NU‐9 (n = 5), hSOD1^G93A‐UeGFP 20 mg/kg/day NU‐9 (n = 7), WT‐UeGFP 100 mg/kg/day NU‐9 (n = 11), hSOD1^G93A‐UeGFP 100 mg/kg/day NU‐9 (n = 9), prpTDP‐43^A315T‐UeGFP untreated (n ≥ 3), and prpTDP‐43^A315T‐UeGFP 100 mg/kg/day NU‐9 (n = 4) (Table S3).

## C[C@H](Oc1cc(C(F)(F)F)cc(C(F)(F)F)c1)C1CC(=O)CC(=O)C1 [NU‐9]
WT-UeGFP (vehicle) vs. WT-UeGFP (NU-9 20 mg/kg/day), P60, Tukey's multiple comparisons test
  Mean Diff. of weight, vehicle vs. NU-9: -0.6
WT-UeGFP (vehicle) vs. WT-UeGFP (NU-9 20 mg/kg/day), P67, Tukey's multiple comparisons test
  Mean Diff. of weight, vehicle vs. NU-9: -1.3
WT-UeGFP (vehicle) vs. WT-UeGFP (NU-9 20 mg/kg/day), P74, Tukey's multiple comparisons test
  Mean Diff. of weight, vehicle vs. NU-9: -0.9
WT-UeGFP (vehicle) vs. WT-UeGFP (NU-9 20 mg/kg/day), P81, Tukey's multiple comparisons test
  Mean Diff. of weight, vehicle vs. NU-9: -0.5
WT-UeGFP (vehicle) vs. WT-UeGFP (NU-9 20 mg/kg/day), P88, Tukey's multiple comparisons test
  Mean Diff. of weight, vehicle vs. NU-9: -0.1
WT-UeGFP (vehicle) vs. WT-UeGFP (NU-9 20 mg/kg/day), P95, Tukey's multiple comparisons test
  Mean Diff. of weight, vehicle vs. NU-9: 0
WT-UeGFP (vehicle) vs. WT-UeGFP (NU-9 20 mg/kg/day), P102, Tukey's multiple comparisons test
  Mean Diff. of weight, vehicle vs. NU-9: -0.2
WT-UeGFP (vehicle) vs. WT-UeGFP (NU-9 20 mg/kg/day), P109, Tukey's multiple comparisons test
  Mean Diff. of weight, vehicle vs. NU-9: -1
WT-UeGFP (vehicle) vs. WT-UeGFP (NU-9 20 mg/kg/day), P116, Tukey's multiple comparisons test
  Mean Diff. of weight, vehicle vs. NU-9: -1.267
WT-UeGFP (vehicle) vs. WT-UeGFP (NU-9 100 mg/kg/day), P60, Tukey's multiple comparisons test
  Mean Diff. of weight, vehicle vs. NU-9: -0.01818
WT-UeGFP (vehicle) vs. WT-UeGFP (NU-9 100 mg/kg/day), P67, Tukey's multiple comparisons test
  Mean Diff. of weight, vehicle vs. NU-9: -0.7545
WT-UeGFP (vehicle) vs. WT-UeGFP (NU-9 100 mg/kg/day), P74, Tukey's multiple comparisons test
  Mean Diff. of weight, vehicle vs. NU-9: -0.2818
WT-UeGFP (vehicle) vs. WT-UeGFP (NU-9 100 mg/kg/day), P81, Tukey's multiple comparisons test
  Mean Diff. of weight, vehicle vs. NU-9: -0.9364
WT-UeGFP (vehicle) vs. WT-UeGFP (NU-9 100 mg/kg/day), P88, Tukey's multiple comparisons test
  Mean Diff. of weight, vehicle vs. NU-9: -0.2091
WT-UeGFP (vehicle) vs. WT-UeGFP (NU-9 100 mg/kg/day), P95, Tukey's multiple comparisons test
  Mean Diff. of weight, vehicle vs. NU-9: -0.2
WT-UeGFP (vehicle) vs. WT-UeGFP (NU-9 100 mg/kg/day), P102, Tukey's multiple comparisons test
  Mean Diff. of weight, vehicle vs. NU-9: -0.5636
WT-UeGFP (vehicle) vs. WT-UeGFP (NU-9 100 mg/kg/day), P109, Tukey's multiple comparisons test
  Mean Diff. of weight, vehicle vs. NU-9: -0.2545
WT-UeGFP (vehicle) vs. WT-UeGFP (NU-9 100 mg/kg/day), P116, Tukey's multiple comparisons test
  Mean Diff. of weight, vehicle vs. NU-9: -0.7576
NU-9 20 mg/kg/day, P60
  Mean weight (Mean 2): 18.4
NU-9 20 mg/kg/day, P67
  Mean weight (Mean 2): 19
NU-9 20 mg/kg/day, P74
  Mean weight (Mean 2): 18.8
NU-9 20 mg/kg/day, P81
  Mean weight (Mean 2): 18.2
NU-9 20 mg/kg/day, P88
  Mean weight (Mean 2): 18.8
NU-9 20 mg/kg/day, P95
  Mean weight (Mean 2): 18.8
NU-9 100 mg/kg/day, P60
  Mean weight (Mean 2): 17.82
NU-9 100 mg/kg/day, P67
  Mean weight (Mean 2): 18.45
NU-9 100 mg/kg/day, P74
  Mean weight (Mean 2): 18.18
NU-9 100 mg/kg/day, P81
  Mean weight (Mean 2): 18.64
NU-9 100 mg/kg/day, P88
  Mean weight (Mean 2): 18.91
NU-9 100 mg/kg/day, P95
  Mean weight (Mean 2): 19
NU-9 20 mg/kg/day po, P60
  Weight, Average: 18.4 g
NU-9 20 mg/kg/day po, P67
  Weight, Average: 19 g
NU-9 20 mg/kg/day po, P74
  Weight, Average: 18.8 g
NU-9 20 mg/kg/day po, P81
  Weight, Average: 18.2 g
NU-9 20 mg/kg/day po, P88
  Weight, Average: 18.8 g
NU-9 20 mg/kg/day po, P95
  Weight, Average: 18.8 g
NU-9 20 mg/kg/day po, P102
  Weight, Average: 19 g
NU-9 20 mg/kg/day po, P109
  Weight, Average: 20.2 g
NU-9 20 mg/kg/day po, P116
  Weight, Average: 20.6 g
NU-9 100 mg/kg/day po, P60
  Weight, Average: 17.8182 g
NU-9 100 mg/kg/day po, P67
  Weight, Average: 18.6 g
NU-9 100 mg/kg/day po, P74
  Weight, Average: 18.1 g
NU-9 100 mg/kg/day po, P81
  Weight, Average: 18.7 g
NU-9 100 mg/kg/day po, P88
  Weight, Average: 18.9 g
NU-9 100 mg/kg/day po, P95
  Weight, Average: 19 g
NU-9 100 mg/kg/day po, P102
  Weight, Average: 19.5 g
NU-9 100 mg/kg/day po, P109
  Weight, Average: 19.6 g
NU-9 100 mg/kg/day po, P116
  Weight, Average: 20.3 g
